Measured values from patent publication US20160158200A1, “Combinations of Hepatitis C Virus Inhibitors” (priority 2013, published 2016).

System: HCV genotype-1a variant with glutamine 30 changed to glutamate in the NS5A protein
Assay type: cell-based
Details: test compound titrated with BMS-790052 fixed at 200 nM; genotype 1a Q30E replicon
In short: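 Synergy was assessed by combining several fixed amounts of an NS5A-targeting compound with a titration of the second compound of interest.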

Row | SMILES | Fold-Synergistic 1a (Q30E)
1 | CC(C)(C)[C@H](NC(=O)C(=O)N1CCOCC1)c1nc(-c2ccc(-c3ccc(-c4c[nH]c([C@@H](NC(=O)C(=O)N5CCOCC5)C(C)(C)C)n4)cc3)cc2)c[nH]1 [Compound W-25] | >100 fold
2 | CC(C)(C)[C@H](NC(=O)C(=O)N1CCC(F)CC1)c1nc(-c2ccc(-c3ccc(-c4c[nH]c([C@@H](NC(=O)C(=O)N5CCC(F)CC5)C(C)(C)C)n4)cc3)cc2)c[nH]1 [Compound W-26] | >100 fold
3 | CC(C)(C)[C@H](NC(=O)C(=O)N1CC(F)(F)C1)c1nc(-c2ccc(-c3ccc(-c4c[nH]c([C@@H](NC(=O)C(=O)N5CC(F)(F)C5)C(C)(C)C)n4)cc3)cc2)c[nH]1 [Compound W-28] | >100 fold
4 | CCOC(=O)C(=O)N[C@H](c1nc(-c2ccc(-c3ccc(-c4c[nH]c([C@@H](NC(=O)C(=O)OCC)C(C)(C)C)n4)cc3)cc2)c[nH]1)C(C)(C)C [Compound W-30] | >100 fold
5 | CC(C)(C)[C@H](Nc1ncccn1)c1nc(-c2ccc(-c3ccc(-c4c[nH]c([C@@H](Nc5ncc(Br)cn5)C(C)(C)C)n4)cc3)cc2)c[nH]1 [Compound W-31] | >10 fold
6 | CC(C)(C)[C@H](NC(=O)C(=O)N1CCCCCC1)c1nc(-c2ccc(-c3ccc(-c4c[nH]c([C@@H](NC(=O)C(=O)N5CCCCCC5)C(C)(C)C)n4)cc3)cc2)c[nH]1 [Compound W-32] | >100 fold
7 | CCN(CC)C(=O)C(=O)N[C@H](c1nc(-c2ccc(-c3ccc(-c4c[nH]c([C@@H](NC(=O)C(=O)N(CC)CC)C(C)(C)C)n4)cc3)cc2)c[nH]1)C(C)(C)C [Compound W-33] | >100 fold
8 | CN1CCN(C(=O)C(=O)N[C@H](c2nc(-c3ccc(-c4ccc(-c5c[nH]c([C@@H](NC(=O)C(=O)N6CCN(C)CC6)C(C)(C)C)n5)cc4)cc3)c[nH]2)C(C)(C)C)CC1 [Compound W-35] | >100 fold
9 | CCN(CC(F)(F)F)C(=O)C(=O)N[C@H](c1nc(-c2ccc(-c3ccc(-c4c[nH]c([C@@H](NC(=O)C(=O)N(CC)CC(F)(F)F)C(C)(C)C)n4)cc3)cc2)c[nH]1)C(C)(C)C [Compound W-37] | >100 fold
10 | CC1CCCCN1C(=O)C(=O)NC(c1nc(-c2ccc(-c3ccc(-c4c[nH]c(C(NC(=O)C(=O)N5CCCCC5C)C(C)(C)C)n4)cc3)cc2)c[nH]1)C(C)(C)C (stereo not shown) [Compound W-38] | >100 fold
11 | CC1([C@H](NC(=O)C(=O)N2CCC(F)(F)CC2)c2nc(-c3ccc(-c4ccc(-c5c[nH]c([C@@H](NC(=O)C(=O)N6CCC(F)(F)CC6)C6(C)CC6)n5)cc4)cc3)c[nH]2)CC1.O=C(O)C(F)(F)F [Compound W-39] | >100 fold
12 | CC(C)(C)[C@H](NC(=O)[C@@]1(N)C[C@@H]1c1ccccc1)c1nc(-c2ccc(-c3ccc(-c4c[nH]c([C@@H](NC(=O)[C@@]5(N)C[C@@H]5c5ccccc5)C(C)(C)C)n4)cc3)cc2)c[nH]1 [Compound W-41] | >100 fold
13 | CC(C)(C)[C@H](NC(=O)C(N)=O)c1nc(-c2ccc(-c3ccc(-c4c[nH]c([C@@H](NC(=O)C(N)=O)C(C)(C)C)n4)cc3)cc2)c[nH]1 [Compound W-42] | >10 fold
14 | CC(C)(C)OC(=O)C(=O)N[C@H](c1nc(-c2ccc(-c3ccc(-c4c[nH]c([C@@H](NC(=O)C(=O)OC(C)(C)C)C(C)(C)C)n4)cc3)cc2)c[nH]1)C(C)(C)C [Compound W-43A] | >100 fold
15 | CCNC(=O)C(=O)N[C@H](c1nc(-c2ccc(-c3ccc(-c4c[nH]c([C@@H](NC(=O)C(=O)OC(C)(C)C)C(C)(C)C)n4)cc3)cc2)c[nH]1)C(C)(C)C [Compound W-43B] | >100 fold
16 | CC(C)(C)[C@H](NC(=O)C(=O)O)c1nc(-c2ccc(-c3ccc(-c4c[nH]c([C@@H](NC(=O)C(=O)O)C(C)(C)C)n4)cc3)cc2)c[nH]1 [Compound W-44] | >10 fold
17 | C[C@@H]1CN(C(=O)C(=O)N[C@H](c2nc(-c3ccc(-c4ccc(-c5c[nH]c([C@@H](NC(=O)C(=O)N6C[C@@H](C)O[C@@H](C)C6)C(C)(C)C)n5)cc4)cc3)c[nH]2)C(C)(C)C)C[C@H](C)O1 [Compound W-45] | >100 fold
18 | CC(C)(C)[C@H](NC(=O)C(=O)N1CCCC(F)(F)C1)c1nc(-c2ccc(-c3ccc(-c4c[nH]c([C@@H](NC(=O)C(=O)N5CCCC(F)(F)C5)C(C)(C)C)n4)cc3)cc2)c[nH]1 [Compound W-46A] | >100 fold
19 | CC(C)(C)[C@H](NC(=O)C(=O)N(CCC#N)C1CC1)c1nc(-c2ccc(-c3ccc(-c4c[nH]c([C@@H](NC(=O)C(=O)N(CCC#N)C5CC5)C(C)(C)C)n4)cc3)cc2)c[nH]1 [Compound W-48] | >100 fold
20 | CC(C)N(C(=O)C(=O)N[C@H](c1nc(-c2ccc(-c3ccc(-c4c[nH]c([C@@H](NC(=O)C(=O)N(C(C)C)C5CC5)C(C)(C)C)n4)cc3)cc2)c[nH]1)C(C)(C)C)C1CC1 [Compound W-49] | >100 fold

Row | SMILES | Fold-Synergistic 1a (Q30E)
21 | CN(C(=O)C(=O)N[C@H](c1nc(-c2ccc(-c3ccc(-c4c[nH]c([C@@H](NC(=O)C(=O)N(C)C5CC5)C(C)(C)C)n4)cc3)cc2)c[nH]1)C(C)(C)C)C1CC1 [Compound W-50] | >100 fold
22 | CC(C)C(NC(=O)C(=O)N1CCCCCC1)c1nc(-c2ccc(-c3ccc(-c4c[nH]c(C(NC(=O)C(=O)N5CCCCCC5)C(C)C)n4)cc3)cc2)c[nH]1 (stereo not shown) [Compound W-52] | >100 fold
23 | CC(C)C(NC(=O)C(=O)N1CCC(C(F)(F)F)CC1)c1nc(-c2ccc(-c3ccc(-c4c[nH]c(C(NC(=O)C(=O)N5CCC(C(F)(F)F)CC5)C(C)C)n4)cc3)cc2)c[nH]1 (stereo not shown) [Compound W-53] | >100 fold
24 | CC1CN(C(=O)C(=O)NC(c2nc(-c3ccc(-c4ccc(-c5c[nH]c(C(NC(=O)C(=O)N6CC(C)OC(C)C6)C(C)C)n5)cc4)cc3)c[nH]2)C(C)C)CC(C)O1 (stereo not shown) [Compound W-54] | >100 fold
25 | CC(C)C(NC(=O)C(=O)N(C(C)C)C1CC1)c1nc(-c2ccc(-c3ccc(-c4c[nH]c(C(NC(=O)C(=O)N(C(C)C)C5CC5)C(C)C)n4)cc3)cc2)c[nH]1 (stereo not shown) [Compound W-55] | >100 fold
26 | CCN(CC(F)(F)F)C(=O)C(=O)NC(c1nc(-c2ccc(-c3ccc(-c4c[nH]c(C(NC(=O)C(=O)N(CC)CC(F)(F)F)C(C)C)n4)cc3)cc2)c[nH]1)C(C)C (stereo not shown) [Compound W-56] | >100 fold
27 | CC1([C@H](NC(=O)C(=O)N2CCCCCC2)c2nc(-c3ccc(-c4ccc(-c5c[nH]c([C@@H](NC(=O)C(=O)N6CCCCCC6)C6(C)CC6)n5)cc4)cc3)c[nH]2)CC1 [Compound W-57] | >100 fold
28 | CC(C)N(C(=O)C(=O)N[C@H](c1nc(-c2ccc(-c3ccc(-c4c[nH]c([C@@H](NC(=O)C(=O)N(C(C)C)C5CC5)C5(C)CC5)n4)cc3)cc2)c[nH]1)C1(C)CC1)C1CC1 [Compound W-58] | >100 fold
29 | CC1([C@H](NC(=O)C(=O)N2CCC(C(F)(F)F)CC2)c2nc(-c3ccc(-c4ccc(-c5c[nH]c([C@@H](NC(=O)C(=O)N6CCC(C(F)(F)F)CC6)C6(C)CC6)n5)cc4)cc3)c[nH]2)CC1 [Compound W-59] | >100 fold
30 | CC(C)(C)[C@H](NC(=O)C(=O)N1CCC(C(F)(F)F)CC1)c1nc(-c2ccc(-c3ccc(-c4c[nH]c([C@@H](NC(=O)C(=O)N5CCC(C(F)(F)F)CC5)C(C)(C)C)n4)cc3)cc2)c[nH]1 [Compound W-60] | >100 fold
31 | C[C@@H]1CN(C(=O)C(=O)N[C@H](c2nc(-c3ccc(-c4ccc(-c5c[nH]c([C@@H](NC(=O)C(=O)N6C[C@@H](C)O[C@@H](C)C6)C6(C)CC6)n5)cc4)cc3)c[nH]2)C2(C)CC2)C[C@H](C)O1 [Compound W-61] | >100 fold
32 | CC1([C@H](NC(=O)C2(N3CCC(F)(F)CC3)COC2)c2nc(-c3ccc(-c4ccc(-c5c[nH]c([C@@H](NC(=O)C6(N7CCC(F)(F)CC7)COC6)C6(C)CC6)n5)cc4)cc3)c[nH]2)CC1 [Compound W-62] | >100 fold
33 | CC(C)(C)[C@H](NC(=O)C1(N2CCC(F)(F)CC2)COC1)c1nc(-c2ccc(-c3ccc(-c4c[nH]c([C@@H](NC(=O)C5(N6CCC(F)(F)CC6)COC5)C(C)(C)C)n4)cc3)cc2)c[nH]1 [Compound W-63] | >100 fold
34 | CC(C)C(NC(=O)C1(N2CCC(F)(F)CC2)COC1)c1nc(-c2ccc(-c3ccc(-c4c[nH]c(C(NC(=O)C5(N6CCC(F)(F)CC6)COC5)C(C)C)n4)cc3)cc2)c[nH]1 (stereo not shown) [Compound W-64] | >100 fold
35 | CC(C)C(NC(=O)C(=O)N(CC(F)(F)F)C(C)C)c1nc(-c2ccc(-c3ccc(-c4c[nH]c(C(NC(=O)C(=O)N(CC(F)(F)F)C(C)C)C(C)C)n4)cc3)cc2)c[nH]1 (stereo not shown) [Compound W-65] | >100 fold
36 | CC(C)N(CC(F)(F)F)C(=O)C(=O)N[C@H](c1nc(-c2ccc(-c3ccc(-c4c[nH]c([C@@H](NC(=O)C(=O)N(CC(F)(F)F)C(C)C)C(C)(C)C)n4)cc3)cc2)c[nH]1)C(C)(C)C [Compound W-66] | >100 fold
37 | CC1CC(C(=O)NC(c2nc(-c3ccc(-c4ccc(-c5c[nH]c(C(NC(=O)C6CC(C)CN6C(=O)OC(C)(C)C)C6(C)CC6)n5)cc4)cc3)c[nH]2)C2(C)CC2)N(C(=O)OC(C)(C)C)C1 (stereo not shown) [Compound W-71] | >100 fold
38 | CC(C)C(NC(=O)C1C2CC2CN1C(=O)OC(C)(C)C)c1nc(-c2ccc(-c3ccc(-c4c[nH]c(C(NC(=O)C5C6CC6CN5C(=O)OC(C)(C)C)C(C)C)n4)cc3)cc2)c[nH]1 (stereo not shown) [Compound W-74] | >100 fold
39 | CC(C)(C)OC(=O)N1CC2CC2C1C(=O)NC(c1nc(-c2ccc(-c3ccc(-c4c[nH]c(C(NC(=O)C5C6CC6CN5C(=O)OC(C)(C)C)C(C)(C)C)n4)cc3)cc2)c[nH]1)C(C)(C)C (stereo not shown) [Compound W-79] | >100 fold
40 | CC(C)(C)OC(=O)N1C2CCC1(C(=O)N[C@H](c1nc(-c3ccc(-c4ccc(-c5c[nH]c([C@@H](NC(=O)C67CCC(CC6)N7C(=O)OC(C)(C)C)C(C)(C)C)n5)cc4)cc3)c[nH]1)C(C)(C)C)CC2 [Compound W-85] | >100 fold
